Measurements taken from US11034672B1, “Tyrosine kinase inhibitor compositions, methods of making and methods of use” (Black Diamond Therapeutics, Inc., priority 2018, dated 2021).

Experiments:
Type in all cases: cell-based
EGFR WT [1] = target: T1, EGFR WT (Homo sapiens, UniProt P00533); test: Activity for inhibiting EGFR (Table A), EGFR WT; conditions: read-out: EGFR WT, potency code (IC50)
EGFR V3 [2] = target: T2, EGFR V3 (Homo sapiens, UniProt P00533, DELINS30-297G); test: Activity for inhibiting EGFR (Table A), EGFR V3 (EGFR-Viii); conditions: read-out: EGFR V3, potency code (IC50)
T2 construct: expressed in transfected cells; host or cells: BaF3 (murine pro-B), retroviral pMXs-IRES-Blasticidin
T2 sequence (P00533 with tags, fused parts or gaps DELINS30-297G): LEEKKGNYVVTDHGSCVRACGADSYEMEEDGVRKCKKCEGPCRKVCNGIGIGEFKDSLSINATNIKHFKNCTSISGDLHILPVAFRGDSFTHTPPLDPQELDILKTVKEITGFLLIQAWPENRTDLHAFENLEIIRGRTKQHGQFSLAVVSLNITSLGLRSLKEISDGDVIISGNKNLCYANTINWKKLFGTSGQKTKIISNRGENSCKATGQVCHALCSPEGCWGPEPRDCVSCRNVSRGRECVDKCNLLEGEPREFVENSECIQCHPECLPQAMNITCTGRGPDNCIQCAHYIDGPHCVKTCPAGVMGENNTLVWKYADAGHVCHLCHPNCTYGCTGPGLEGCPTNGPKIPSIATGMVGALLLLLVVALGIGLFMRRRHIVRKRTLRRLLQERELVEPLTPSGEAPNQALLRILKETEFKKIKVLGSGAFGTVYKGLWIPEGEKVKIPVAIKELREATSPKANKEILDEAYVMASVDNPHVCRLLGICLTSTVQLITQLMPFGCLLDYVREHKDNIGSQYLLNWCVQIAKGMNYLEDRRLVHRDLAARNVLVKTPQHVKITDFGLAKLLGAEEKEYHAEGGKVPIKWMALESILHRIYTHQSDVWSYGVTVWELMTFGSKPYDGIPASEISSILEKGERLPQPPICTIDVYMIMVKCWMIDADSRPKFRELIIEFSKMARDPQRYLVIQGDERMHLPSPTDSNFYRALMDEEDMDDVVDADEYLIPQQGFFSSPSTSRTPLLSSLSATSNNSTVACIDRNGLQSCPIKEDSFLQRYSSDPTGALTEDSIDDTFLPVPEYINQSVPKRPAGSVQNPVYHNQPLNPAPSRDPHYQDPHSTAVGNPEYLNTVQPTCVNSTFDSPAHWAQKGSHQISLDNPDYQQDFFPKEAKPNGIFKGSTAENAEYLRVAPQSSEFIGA

EGFR NPH [3] = target: T3, EGFR NPH (Homo sapiens, UniProt P00533, DUP771-773); test: Activity for inhibiting EGFR (Table A), EGFR NPH; conditions: read-out: EGFR NPH, potency code (IC50)
T3 construct: expressed in transfected cells; host or cells: BaF3 (murine pro-B), retroviral pMXs-IRES-Blasticidin

EGFR SVD [4] = target: T4, EGFR SVD (Homo sapiens, UniProt P00533, DUP768-770); test: Activity for inhibiting EGFR (Table A), EGFR SVD; conditions: read-out: EGFR SVD, potency code (IC50)
T4 construct: expressed in transfected cells; host or cells: BaF3 (murine pro-B), retroviral pMXs-IRES-Blasticidin

HER2 WT [5] = target: T5, HER2 WT (Homo sapiens, UniProt P04626); test: Activity for inhibiting HER2 (Table B), HER2 WT
HER2 S310F [6] = target: T6, HER2 S310F (Homo sapiens, UniProt P04626, S310F); test: Activity for inhibiting HER2 (Table B), HER2 S310F; conditions: read-out: HER2 S310F, potency code (IC50)
T6 construct: expressed in transfected cells; host or cells: BaF3 (murine pro-B)
T6 sequence (P04626 23-1255 S310F): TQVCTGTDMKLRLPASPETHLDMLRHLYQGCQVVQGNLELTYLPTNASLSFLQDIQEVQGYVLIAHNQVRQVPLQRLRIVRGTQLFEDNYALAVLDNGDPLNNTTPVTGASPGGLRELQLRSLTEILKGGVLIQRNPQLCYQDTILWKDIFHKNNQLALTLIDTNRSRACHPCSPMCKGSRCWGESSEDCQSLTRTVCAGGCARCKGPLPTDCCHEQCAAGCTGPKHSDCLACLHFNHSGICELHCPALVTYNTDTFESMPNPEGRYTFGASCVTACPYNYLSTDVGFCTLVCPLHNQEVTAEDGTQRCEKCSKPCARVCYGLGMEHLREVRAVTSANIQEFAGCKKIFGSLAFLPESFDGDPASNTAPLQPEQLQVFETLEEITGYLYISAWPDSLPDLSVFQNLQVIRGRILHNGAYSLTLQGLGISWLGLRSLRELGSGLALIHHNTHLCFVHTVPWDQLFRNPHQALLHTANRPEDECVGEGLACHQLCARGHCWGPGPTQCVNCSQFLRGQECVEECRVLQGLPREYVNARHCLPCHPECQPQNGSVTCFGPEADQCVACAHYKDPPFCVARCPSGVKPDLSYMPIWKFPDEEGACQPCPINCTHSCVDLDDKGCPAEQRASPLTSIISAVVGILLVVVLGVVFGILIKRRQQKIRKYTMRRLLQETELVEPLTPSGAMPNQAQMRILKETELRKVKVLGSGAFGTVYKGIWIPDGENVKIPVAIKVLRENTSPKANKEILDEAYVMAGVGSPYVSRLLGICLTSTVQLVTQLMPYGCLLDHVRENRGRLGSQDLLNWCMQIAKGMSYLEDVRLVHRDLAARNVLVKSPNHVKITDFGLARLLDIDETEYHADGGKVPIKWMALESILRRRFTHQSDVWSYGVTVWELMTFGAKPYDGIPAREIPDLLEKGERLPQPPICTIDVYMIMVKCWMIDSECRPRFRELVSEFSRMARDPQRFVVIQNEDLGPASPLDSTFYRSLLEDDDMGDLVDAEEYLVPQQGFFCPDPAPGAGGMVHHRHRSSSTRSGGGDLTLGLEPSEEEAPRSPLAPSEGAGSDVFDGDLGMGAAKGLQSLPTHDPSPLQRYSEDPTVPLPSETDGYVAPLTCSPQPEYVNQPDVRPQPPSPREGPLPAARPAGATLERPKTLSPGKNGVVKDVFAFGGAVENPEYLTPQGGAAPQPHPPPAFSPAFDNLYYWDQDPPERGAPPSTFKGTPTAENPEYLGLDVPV
Experimental: (§1) EC50 values were determined with the same application.

HER2 YVMA [7] = target: T7, HER2 YVMA (Homo sapiens, UniProt P04626, INS775YVMA); test: Activity for inhibiting HER2 (Table B), HER2 YVMA; conditions: read-out: HER2 YVMA, potency code (IC50)
T7 construct: expressed in transfected cells; host or cells: BaF3 (murine pro-B)
T7 sequence (P04626 with tags, fused parts or gaps INS775YVMA): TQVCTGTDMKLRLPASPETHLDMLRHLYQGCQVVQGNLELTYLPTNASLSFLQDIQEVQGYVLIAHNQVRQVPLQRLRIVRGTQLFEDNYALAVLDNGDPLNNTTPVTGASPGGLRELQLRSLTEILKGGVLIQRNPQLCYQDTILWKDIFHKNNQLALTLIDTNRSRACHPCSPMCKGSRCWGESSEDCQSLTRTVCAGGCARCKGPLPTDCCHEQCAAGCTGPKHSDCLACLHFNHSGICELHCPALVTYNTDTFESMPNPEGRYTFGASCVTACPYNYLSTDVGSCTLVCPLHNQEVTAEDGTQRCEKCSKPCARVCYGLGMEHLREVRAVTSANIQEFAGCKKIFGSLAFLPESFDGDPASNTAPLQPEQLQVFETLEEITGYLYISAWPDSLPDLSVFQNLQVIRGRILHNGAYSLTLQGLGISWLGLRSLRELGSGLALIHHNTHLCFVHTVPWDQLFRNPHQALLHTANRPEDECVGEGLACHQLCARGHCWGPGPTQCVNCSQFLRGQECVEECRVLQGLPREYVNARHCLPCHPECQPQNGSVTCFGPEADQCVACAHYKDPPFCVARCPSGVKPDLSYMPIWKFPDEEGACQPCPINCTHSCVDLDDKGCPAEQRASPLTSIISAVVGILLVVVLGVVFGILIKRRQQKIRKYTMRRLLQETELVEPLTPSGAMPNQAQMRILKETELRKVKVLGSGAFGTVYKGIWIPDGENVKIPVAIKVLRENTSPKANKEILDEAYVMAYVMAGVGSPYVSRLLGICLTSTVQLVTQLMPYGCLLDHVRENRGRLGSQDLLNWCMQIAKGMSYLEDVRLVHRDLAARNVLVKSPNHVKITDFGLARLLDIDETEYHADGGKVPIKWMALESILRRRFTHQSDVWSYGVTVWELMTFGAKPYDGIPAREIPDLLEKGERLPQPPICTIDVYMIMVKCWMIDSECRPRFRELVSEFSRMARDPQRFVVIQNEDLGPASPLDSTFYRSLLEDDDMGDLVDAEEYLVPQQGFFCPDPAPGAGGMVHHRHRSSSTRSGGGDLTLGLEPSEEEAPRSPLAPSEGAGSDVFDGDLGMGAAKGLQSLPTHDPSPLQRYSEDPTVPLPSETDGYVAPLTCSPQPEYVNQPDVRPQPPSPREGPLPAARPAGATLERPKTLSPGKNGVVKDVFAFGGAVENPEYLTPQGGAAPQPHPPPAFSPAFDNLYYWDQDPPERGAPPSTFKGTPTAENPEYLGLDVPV
Experimental: as §1

EGFR WT [8] = target: T1, EGFR WT; test: BaF3 cell proliferation assay, EGFR WT (Table A); conditions: potency code, 3 days, CellTiterGlo, read-out: EGFR WT (Activity for Inhibiting EGFR)
In short: (§2)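 Steps: HEK 293T transfected with pMXs-IRES-Blasticidin kinase vector plus Gag-Pol and VSV-G; virus harvested at 24 and 48 hrs; BaF3 infected twice by centrifugation, Blasticidin-selected, then grown without IL-3. Proliferation EC50 measured.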

EGFR V3 [9] = target: T2, EGFR V3; test: BaF3 cell proliferation assay, EGFR V3 (Table A); conditions: potency code, 3 days, CellTiterGlo, read-out: EGFR V3 (Activity for Inhibiting EGFR)
In short: as §2

EGFR NPH [10] = target: T3, EGFR NPH; test: BaF3 cell proliferation assay, EGFR NPH (Table A); conditions: potency code, 3 days, CellTiterGlo, read-out: EGFR NPH (Activity for Inhibiting EGFR)
Experimental: (§3) Retroviral Production: EGFR mutants were subcloned into pMXs-IRES-Blasticidin (RTV-016, Cell Biolabs, San Diego, Calif.). Retroviral expression vector retrovirus was produced by transient transfection of HEK 293T cells with the retroviral EGFR mutant expression vector pMXs-IRES-Blasticidin (RTV-016, Cell Biolabs), pCMV-Gag-Pol vector and pCMV-VSV-G-Envelope vector. Briefly, HEK 293T/17 cells were plated in 100 mm collagen coated plate (354450, Corning Life Sciences, Tewksbury, Mass.) (4×10^5 per plate) and incubated overnight. The next day, retroviral plasmids (3 μg of EGFR mutant, 1.0 μg of pCMV-Gag-Pol and 0.5 μg pCMV-VSV-G) were mixed in 500 μl of Optimem (31985, Life Technologies). The mixture was incubated at room temperature for 5 min and then added to Optimem containing transfection reagent Lipofectamine (11668, Invitrogen) and incubated for 20 minutes. Mixture was then added dropwise to HEK 293T cells. The next day the medium was replaced with fresh culture medium and retrovirus was harvested @ 24 and 48 hrs.
(§4) Generation of EGFR mutant stable cell lines: BaF3 cells (1.5E5 cells) were infected with 1 ml of viral supernatant supplemented with 8 μg/ml polybrene by centrifuging for 30 min at 1000 rpm. Cells were placed in a 37° C. incubator overnight. Cells were then spun for 5 minutes to pellet the cells. Supernatant was removed and cells re-infected a fresh 1 ml of viral supernatant supplemented with 8 μg/ml polybrene by centrifuging for 30 min at 1000 rpm. Cells were placed in 37° C. incubator overnight. […] After 48 hours cells were selected for retroviral infection in 10 μg/ml Blasticidin for one week. Blasticidin resistant populations were washed twice in phosphate buffered saline before plating in media lacking IL-3 to select for IL-3 independent growth.
as §1

EGFR SVD [11] = target: T4, EGFR SVD; test: BaF3 cell proliferation assay, EGFR SVD (Table A); conditions: potency code, 3 days, CellTiterGlo, read-out: EGFR SVD (Activity for Inhibiting EGFR)
Experimental: as §3, §4, §1

HER2 WT [12] = target: T5, HER2 WT; test: BaF3 cell proliferation assay, HER2 WT (Table B); conditions: potency code, 3 days, CellTiterGlo, read-out: HER2 WT (Activity for Inhibiting HER2)
HER2 S310F [13] = target: T6, HER2 S310F; test: BaF3 cell proliferation assay, HER2 S310F (Table B); conditions: potency code, 3 days, CellTiterGlo, read-out: HER2 S310F (Activity for Inhibiting HER2)
HER2 YVMA [14] = target: T7, HER2 YVMA; test: BaF3 cell proliferation assay, HER2 YVMA (Table B); conditions: potency code, 3 days, CellTiterGlo, read-out: HER2 YVMA (Activity for Inhibiting HER2)
[15] = Table B, read-out: HER2 WT, potency code (IC50)
[16] = text lists of compounds, read-out: IC50 value for inhibiting wild-type HER2

T1 sequence (P00533 25-1210 N540K): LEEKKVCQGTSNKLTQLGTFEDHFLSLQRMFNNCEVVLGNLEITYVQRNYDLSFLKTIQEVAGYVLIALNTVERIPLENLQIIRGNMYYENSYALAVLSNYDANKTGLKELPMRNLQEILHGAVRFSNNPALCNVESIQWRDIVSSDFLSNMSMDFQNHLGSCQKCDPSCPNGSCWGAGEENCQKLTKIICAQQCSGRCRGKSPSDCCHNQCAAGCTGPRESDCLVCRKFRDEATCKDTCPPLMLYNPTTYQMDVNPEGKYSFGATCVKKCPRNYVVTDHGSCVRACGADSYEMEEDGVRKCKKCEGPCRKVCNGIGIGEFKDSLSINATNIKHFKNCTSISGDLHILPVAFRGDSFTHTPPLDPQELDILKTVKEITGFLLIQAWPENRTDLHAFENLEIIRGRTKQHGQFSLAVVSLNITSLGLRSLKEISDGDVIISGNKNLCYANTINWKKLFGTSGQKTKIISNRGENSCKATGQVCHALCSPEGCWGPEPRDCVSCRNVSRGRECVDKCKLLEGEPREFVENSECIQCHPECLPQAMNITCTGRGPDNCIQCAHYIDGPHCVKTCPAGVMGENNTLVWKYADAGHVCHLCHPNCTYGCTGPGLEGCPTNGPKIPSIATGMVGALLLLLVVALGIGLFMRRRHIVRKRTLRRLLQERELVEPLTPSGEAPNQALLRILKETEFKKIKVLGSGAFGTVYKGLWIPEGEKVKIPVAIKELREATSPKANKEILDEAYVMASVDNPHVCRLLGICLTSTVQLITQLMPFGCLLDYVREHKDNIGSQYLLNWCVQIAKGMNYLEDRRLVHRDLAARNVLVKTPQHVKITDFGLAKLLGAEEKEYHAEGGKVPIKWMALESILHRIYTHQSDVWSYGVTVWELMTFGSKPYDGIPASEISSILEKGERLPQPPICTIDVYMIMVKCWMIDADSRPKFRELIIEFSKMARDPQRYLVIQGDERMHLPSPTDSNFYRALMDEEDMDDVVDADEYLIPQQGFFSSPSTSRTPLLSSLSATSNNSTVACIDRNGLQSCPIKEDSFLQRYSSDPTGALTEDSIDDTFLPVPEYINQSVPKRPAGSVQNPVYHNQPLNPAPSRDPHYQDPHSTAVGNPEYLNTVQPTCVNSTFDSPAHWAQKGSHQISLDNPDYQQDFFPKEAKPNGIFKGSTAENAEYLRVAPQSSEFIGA

Row | SMILES | IC50 (EGFR WT [1]) [nM] | IC50 (EGFR V3 [2]) [nM] | IC50 (EGFR NPH [3]) [nM] | IC50 (EGFR SVD [4]) [nM] | IC50 (HER2 WT [5]; [15]) [nM] | IC50 (HER2 WT [5]; [16]) [nM] | IC50 (HER2 S310F [6]) [nM] | IC50 (HER2 YVMA [7]) [nM] | IC50 (EGFR WT [8]) [nM] | IC50 (EGFR V3 [9]) [nM] | IC50 (EGFR NPH [10]) [nM] | IC50 (EGFR SVD [11]) [nM] | IC50 (HER2 WT [12]) [nM] | IC50 (HER2 S310F [13]) [nM] | IC50 (HER2 YVMA [14]) [nM]
1 | C=CC(=O)Nc1cc2c(Nc3ccc(OCc4ccccn4)c(Cl)c3)ncnc2cc1OCCCN1CC2CC1CO2 (stereo not drawn) [compound 20] | 200 to 300 | 20 to 30 | 10 to 20 | 10 to 20 | < 5 | ≤ 10 | 10 to 20 | 10 to 20 | 200 to 300 | 20 to 30 | 10 to 20 | 10 to 20 | < 5 | 10 to 20 | 10 to 20
2 | C=CC(=O)Nc1cc2c(Nc3ccc(OCc4ccccn4)c(Cl)c3)ncnc2cc1OCCCN1CCCC1 [compound 22] | 50 to 100 | 20 to 30 | 20 to 30 | 10 to 20 | < 5 | ≤ 5 | 5 to 10 | 30 to 50 | 50 to 100 | 20 to 30 | 20 to 30 | 10 to 20 | < 5 | 5 to 10 | 30 to 50
3 | C=CC(=O)Nc1cc2c(Nc3ccc(OCc4ccccn4)c(Cl)c3)ncnc2cc1OC1CN(C)C1 [compound 25] | 500 to 1000 | 200 to 300 | 20 to 30 | 30 to 50 | 10 to 20 | ≤ 20 | 10 to 20 | 50 to 100 | 500 to 1000 | 200 to 300 | 20 to 30 | 30 to 50 | 10 to 20 | 10 to 20 | 50 to 100
4 | C=CC(=O)Nc1cc2c(Nc3ccc(OCc4ccccn4)c(Cl)c3)ncnc2cc1OCCN1CCCC1 [compound 28] | 200 to 300 | 10 to 20 | 50 to 100 | 30 to 50 | 5 to 10 | ≤ 10 | 10 to 20 | 30 to 50 | 200 to 300 | 10 to 20 | 50 to 100 | 30 to 50 | 5 to 10 | 10 to 20 | 30 to 50
5 | C=CC(=O)Nc1cc2c(Nc3ccc(OCc4ccccn4)c(Cl)c3)ncnc2cc1OCCN1C2CCC1COC2 [compound 31] | 500 to 1000 | 30 to 50 | 50 to 100 | 50 to 100 | 5 to 10 | ≤ 10 | 30 to 50 | 100 to 200 | 500 to 1000 | 30 to 50 | 50 to 100 | 50 to 100 | 5 to 10 | 30 to 50 | 100 to 200
6 | C=CC(=O)Nc1cc2c(Nc3ccc(OCc4ccccn4)c(Cl)c3)ncnc2cc1OCCN1CCC1 [compound 33] | 300 to 500 | 20 to 30 | 50 to 100 | 50 to 100 | 5 to 10 | ≤ 10 | 10 to 20 | 100 to 200 | 300 to 500 | 20 to 30 | 50 to 100 | 50 to 100 | 5 to 10 | 10 to 20 | 100 to 200
7 | C=CC(=O)Nc1cc2c(Nc3ccc(OCc4ccccn4)c(Cl)c3)ncnc2cc1OCCN1CC(OC)C1 [compound 35] | 300 to 500 | 20 to 30 | 50 to 100 | 20 to 30 | < 5 | ≤ 5 | 10 to 20 | 30 to 50 | 300 to 500 | 20 to 30 | 50 to 100 | 20 to 30 | < 5 | 10 to 20 | 30 to 50
8 | C=CC(=O)Nc1cc2c(Nc3ccc(OCc4ccccn4)c(Cl)c3)ncnc2cc1OCCN1CC2CCC(C1)O2 [compound 36] | > 1000 | 30 to 50 | 50 to 100 | 50 to 100 | 10 to 20 | ≤ 20 | 20 to 30 | 30 to 50 | > 1000 | 30 to 50 | 50 to 100 | 50 to 100 | 10 to 20 | 20 to 30 | 30 to 50
9 | C=CC(=O)Nc1cc2c(Nc3ccc(OCc4ccccn4)c(Cl)c3)ncnc2cc1OCCN1CC2CC1CO2 (stereo not drawn) [compound 39] | 500 to 1000 | 20 to 30 | 50 to 100 | 30 to 50 | 5 to 10 | ≤ 10 | 10 to 20 | 50 to 100 | 500 to 1000 | 20 to 30 | 50 to 100 | 30 to 50 | 5 to 10 | 10 to 20 | 50 to 100
